Here are results for four compounds from patent publication US6995243B2, “Antibodies that recognize and bind phosphorylated human glucocorticoid receptor and methods of using same” (New York University, priority 2002, dated 2006).

Entries after “also recorded” stand apart in the source; their conditions may differ.

Assay [1] concerns the target total GR (Homo sapiens, UniProt P04150). Conditions: 12 h continuous hormone treatment, 100 nM.
Procedure: FIGS. 7A–7C are immunoblots and graph showing the kinetics of S203 and S211 phosphorylation in response to Dex treatment. U2OS-hGR cells were treated with ethanol (−) or Dex (100 nM) for the time indicated. Whole cell lysates were prepared, normalized and analyzed by immunoblotting with phospho-S203, phospho-S211 or HA antibodies. Immunoblot images of GR phosphorylated at S203 and S211 in the first hour of Dex treatment (FIG. 7A) or throughout 12 h of continuous Dex treatment (FIG. 7B); the total GR in each sample was determined by immunoblotting for HA. In FIG. 7C, quantitative analysis of immunoblot results in panel B normalized to total GR detected by HA. The data shown are from a single experiment that is representative of at least three independent experiments. […]
Cell extracts or immunoprecipitates containing GR were separated by 10% SDS-polyacrylamide gel electrophoresis (PAGE) and were transferred to Immobilon paper (Millipore Corp., Bedford, Mass.) at 110V for 80 min in Tris-Glycine transfer buffer. […] Endogenous GR was detected using the N499 polyclonal antibody, raised against residues 1–499 of the human GR. […] Quantitative analysis of immunoblots was performed using the NIH image software package (version 1.62).
In assay [2] the target is T1, human GR phosphorylated at S211 (Homo sapiens, UniProt P04150).
T1 construct: expressed in transfected cells
T1 sequence (P04150 1-777): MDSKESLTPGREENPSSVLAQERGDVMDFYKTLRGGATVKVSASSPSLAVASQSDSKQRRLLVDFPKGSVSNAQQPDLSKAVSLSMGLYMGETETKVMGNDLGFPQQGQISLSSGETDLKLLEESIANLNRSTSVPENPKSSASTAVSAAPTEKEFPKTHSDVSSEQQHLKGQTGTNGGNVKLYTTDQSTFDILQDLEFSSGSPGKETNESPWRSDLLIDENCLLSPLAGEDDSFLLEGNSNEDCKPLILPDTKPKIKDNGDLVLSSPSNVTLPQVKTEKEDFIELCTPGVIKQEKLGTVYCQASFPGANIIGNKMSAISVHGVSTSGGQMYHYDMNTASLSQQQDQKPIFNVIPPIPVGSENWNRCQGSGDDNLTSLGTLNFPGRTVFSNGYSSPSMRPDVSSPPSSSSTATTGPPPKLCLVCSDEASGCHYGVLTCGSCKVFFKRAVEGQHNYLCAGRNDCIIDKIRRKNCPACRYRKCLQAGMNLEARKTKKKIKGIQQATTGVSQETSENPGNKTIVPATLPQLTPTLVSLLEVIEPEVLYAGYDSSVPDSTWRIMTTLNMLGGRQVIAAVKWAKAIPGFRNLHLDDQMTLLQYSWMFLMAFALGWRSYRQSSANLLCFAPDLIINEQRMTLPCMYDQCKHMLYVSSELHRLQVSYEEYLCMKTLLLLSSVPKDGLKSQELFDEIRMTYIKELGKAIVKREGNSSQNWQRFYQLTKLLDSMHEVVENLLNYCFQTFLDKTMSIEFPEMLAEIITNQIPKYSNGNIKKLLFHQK
Briefly: Immunoblot of GR S211 phosphorylation in U2OS-hGR cell extracts. It counts as cell-based. The note with it: 1 h; for GR phosphorylation at S211: ligand 100 nM, U2OS-hGR cells.
Procedure: In FIG. 6A, U20S-hGR were treated with ethanol (−) or the ligands indicated (100 nM) for 1 hour and whole cell extracts were prepared. For antagonism experiments, a 10-fold excess of RU486 (1 μM) or ZK299 (1 μM) were added simultaneously with 100 nM Dex for 1 h prior to cell lysis. Equal amounts of protein from each treatment were analyzed by immunoblotting with either phospho-S203, phospho-S211 or HA antibodies, reflective of the amount of total GR present in each lane.
Cells were placed on ice, washed twice in phosphate-buffer saline (PBS), lysed in 0.5 ml of buffer containing 50 mM HEPES, pH 7.5, 150 mM NaCl, 1 mM EDTA, 1 mM EGTA, 1 mM NaF, 1% Triton X-100, 10% glycerol and additional protease and phosphatase inhibitors: 1 mM PMSF, 20 mM β-glycerophosphate, 8 mM sodium pyrophosphate, 1 μg/ml leupeptin, pepstatin A and aprotinin (Roche). […] The soluble supernatants were normalized for total protein concentration using the Bio-Rad protein assay (Bio-Rad Laboratories, Hercules, Calif.) and the samples were boiled for 3 min in 2×SDS sample buffer and stored at −20° C.
Cell extracts or immunoprecipitates containing GR were separated by 10% SDS-polyacrylamide gel electrophoresis (PAGE) and were transferred to Immobilon paper (Millipore Corp., Bedford, Mass.) at 110V for 80 min in Tris-Glycine transfer buffer. The membranes were blocked overnight in 5% bovine serum albumin (BSA) in Tris-buffered saline, pH 7.4 (TBS) (blocking solution) at 4° C., then were incubated in the blocking buffer with primary antibody at room temperature (RT) for 2–4 h using 1:1,000 and 1:10,000 dilution of serum for phospho-S211 (Ab353) and phospho-S203 (Ab211), respectively. […] The membranes were washed three times for 10 min in TBS/0.1% Triton X-100 and twice in TBS and incubated for 1 h at RT with 0.2 μg/ml protein A conjugated to horseradish peroxidase (HRP) (Kirkegaard and Perry Laboratories, Gaithersburg, Md.). For blots using the anti-HA-tag monoclonal antibody (α-HA; Roche), an HRP-conjugated goat-anti-mouse IgG secondary antibody was used. Blots were then washed three times for 10 min in TBS-0.1% Triton X-100, twice in TBS and developed using enhanced chemiluminescence (ECL) according to manufacturer's instructions (Amersham Pharmacia Biotech Inc., Piscataway, N.J.).

For assay [3], the system named is GR-mediated transcriptional activation. Nature of the assay: MMTV-luciferase reporter GR transcriptional activation in U2OS-hGR cells. It counts as cell-based, human. Conditions: ligand 100 nM, 1 h.
Procedure: In FIG. 6B, U2OS-hGR cells were transiently transfected with the MMTV-luciferase reporter construct along with pCMV-lacZ as an internal control. After 16 h, the cells were treated with ligands indicated (100 nM) for 1 h, conditions identical to those used for the immunoblot analysis, and luciferase activity determined.
The target in assay [4] is T2, human GR phosphorylated at S203 (Homo sapiens, UniProt P04150).
T2 sequence (P04150 1-777): T1 sequence (P04150 1-777)
Conditions: ligand 100 nM, 1 h, U2OS-hGR cells.
Procedure: In FIG. 6A, U20S-hGR were treated with ethanol (−) or the ligands indicated (100 nM) for 1 hour and whole cell extracts were prepared. For antagonism experiments, a 10-fold excess of RU486 (1 μM) or ZK299 (1 μM) were added simultaneously with 100 nM Dex for 1 h prior to cell lysis. Equal amounts of protein from each treatment were analyzed by immunoblotting with either phospho-S203, phospho-S211 or HA antibodies, reflective of the amount of total GR present in each lane. In FIG. 6B, U2OS-hGR cells were transiently transfected with the MMTV-luciferase reporter construct along with pCMV-lacZ as an internal control. After 16 h, the cells were treated with ligands indicated (100 nM) for 1 h, conditions identical to those used for the immunoblot analysis, and luciferase activity determined.
Cells were placed on ice, washed twice in phosphate-buffer saline (PBS), lysed in 0.5 ml of buffer containing 50 mM HEPES, pH 7.5, 150 mM NaCl, 1 mM EDTA, 1 mM EGTA, 1 mM NaF, 1% Triton X-100, 10% glycerol and additional protease and phosphatase inhibitors: 1 mM PMSF, 20 mM β-glycerophosphate, 8 mM sodium pyrophosphate, 1 μg/ml leupeptin, pepstatin A and aprotinin (Roche). Lysates were centrifuged at 12,000 rpm for 15 min at 4° C. […]

In assay [5] the target is T3, GR (Homo sapiens, UniProt P04150).
T3 sequence (P04150 1-777): T1 sequence (P04150 1-777)
The note with it: cited from earlier work.

For `C[C@@H]1C[C@H]2[C@@H]3CCC4=CC(=O)C=C[C@]4(C)[C@@]3(F)[C@@H](O)C[C@]2(C)[C@@]1(O)C(=O)CO` [Dex, dexamethasone], in assay [1], the “Reduction of total GR” value is listed as about 80%. Regarding `C[C@]12C=CC(=O)C=C1CC[C@@H]1[C@@H]2[C@@H](O)C[C@@]2(C)[C@H]1CC[C@]2(O)C(=O)CO` [Prednisolone], the “GR phosphorylation at S211” value in assay [2] was “promoted S211 phosphorylation; also recorded: induced robust GR phosphorylation at S211”. The “GR transcriptional activation (MMTV-luciferase)” value in assay [3] is on record as “pattern mirrored in the GR transcriptional activation assay”. Turning to `CN(C)c1ccc([C@H]2C[C@]3(C)[C@@H](CC[C@]3(O)CCCO)[C@@H]3CCC4=CC(=O)CCC4=C32)cc1` [ZK299], the “Blocking of Dex-dependent GR phosphorylation” value in assay [2] (10-fold molar excess (1 μM) added with 100 nM Dex) is on record as “not as effective”. Besides, the “GR phosphorylation at S211” value in assay [2] is given as “almost no effect”. The “GR phosphorylation at S203” value in assay [4] is on record as “almost no effect”. As to `C=C1[C@@H](O)[C@@H]2O[C@]3(CC[C@H](/C=C/[C@@H](C)[C@@H]4CC(C)=C[C@@]5(O[C@H](C[C@@](C)(O)C(=O)O)CC[C@H]5O)O4)O3)CC[C@H]2O[C@@H]1[C@@H](O)C[C@H](C)[C@H]1O[C@@]2(CCCCO2)CC[C@H]1C` [okadaic acid], in assay [5], the “Effect on GR reported in the literature” value is reported as “results in GR hyperphosphorylation”.
